Holding throughout (format): cell-based
The subject of test [1] is Staphylococcus aureus ATCC 6538 resistant to kanamycin. Briefly: MIC against resistant Staphylococcus aureus strains (Table III). As to conditions: ATCC6538. The source says:
(§1) The new antibiotic substance is active also against microorganism strains which are resistant to other commonly used antibiotics.

Test [2] has as its system Staphylococcus aureus ATCC 6538 resistant to erythromycin. Put plainly: microbe, parasite or virus in culture. As to conditions: ATCC6538.
From the text: as §1

The test system of test [3] is Staphylococcus aureus ATCC 6538 resistant to cephaloridine. Briefly: microbe, parasite or virus in culture. Conditions: ATCC6538.
From the text: as §1

In test [4] the test system is Staphylococcus aureus Tour resistant to streptomycin. Briefly: MIC against resistant Staphylococcus aureus strains (Table III). As to conditions: S. aureus Tour resistant to streptomycin.
From the text: as §1

Test [5] deals with Staphylococcus aureus ATCC 6538 resistant to bacitracin. Briefly: microbe, parasite or virus in culture. As to conditions: ATCC6538.
From the text: as §1

Test [6] deals with Staphylococcus aureus ATCC 6538 resistant to rifampicin. Briefly: MIC against resistant Staphylococcus aureus strains (Table III). As to conditions: ATCC6538.
From the text: as §1

Test [7] has as its system Staphylococcus aureus ATCC 6538 resistant to chloramphenicol. Briefly: microbe, parasite or virus in culture. Conditions: ATCC6538.
From the text: as §1

Test [8] has as its system Staphylococcus aureus ATCC 6538 resistant to lincomycin. Briefly: microbe, parasite or virus in culture. Conditions: ATCC6538.
From the text: as §1

The subject of test [9] is Staphylococcus aureus ATCC 6538 resistant to neomycin. Put plainly: MIC against resistant Staphylococcus aureus strains (Table III). As to conditions: S. aureus ATCC 6538 resistant to neomycin.
From the text: as §1

For test [10], the system named is Staphylococcus aureus ATCC 6538 resistant to tetracycline. Described as above. Conditions: ATCC6538.
From the text: as §1

In test [11] the test system is Staphylococcus aureus ATCC 6538 resistant to penicillin. Briefly: microbe, parasite or virus in culture. As to conditions: ATCC6538.
From the text: as §1

Bridge positions count the residues as written; N and C are the ends. Square brackets hold non-standard residues; d marks the D form. Peptide text beside a SMILES is read from it. * marks the point of attachment. Ileψ(thiazoline)Cys = CC[C@H](C)[C@H](N)C1=N[C@H](C(=O)*)CS1; dOrn = NCCC[C@@H](N)C(=O)O

As for `NC[C@H]1O[C@H](O[C@H]2[C@H](O)[C@@H](O[C@H]3O[C@H](CO)[C@@H](O)[C@H](N)[C@H]3O)[C@H](N)C[C@@H]2N)[C@H](O)[C@@H](O)[C@@H]1O` [kanamycin], in [1], the MIC was above 100 µg/mL.

Turning to `CC[C@H]1OC(=O)[C@H](C)[C@@H](O[C@H]2C[C@@](C)(OC)[C@@H](O)[C@H](C)O2)[C@H](C)[C@@H](O[C@@H]2O[C@H](C)C[C@H](N(C)C)[C@H]2O)[C@](C)(O)C[C@@H](C)C(=O)[C@H](C)[C@@H](O)[C@]1(C)O` [erythromycin], the MIC in [2] was above 100 µg/mL.

Compound `O=C(Cc1cccs1)N[C@@H]1C(=O)N2C(C(=O)[O-])=C(C[n+]3ccccc3)CS[C@H]12` [cephaloridine] had an MIC in test [3] above 100 µg/mL.

As for `[H]/N=C(/N)N[C@H]1[C@H](O)[C@@H](O)[C@H](O[C@@H]2O[C@@H](C)[C@](O)(C=O)[C@H]2O[C@@H]2O[C@@H](CO)[C@H](O)[C@@H](O)[C@@H]2NC)[C@@H](N/C(N)=N\[H])[C@@H]1O` [streptomycin], in test [4], the MIC was above 100 µg/mL.

Regarding `CC[C@H](C)[C@H](N)C1=N[C@H](C(=O)N[C@@H](CC(C)C)C(=O)N[C@H](CCC(=O)O)C(=O)N[C@H](C(=O)N[C@H]2CCCCNC(=O)[C@H](CC(N)=O)NC(=O)[C@@H](CC(=O)O)NC(=O)[C@H](Cc3cnc[nH]3)NC(=O)[C@@H](Cc3ccccc3)NC(=O)[C@H]([C@@H](C)CC)NC(=O)[C@@H](CCCN)NC2=O)[C@@H](C)CC)CS1` [bacitracin] ({Ileψ(thiazoline)Cys}-L[dE]IK[dOrn]I[dF]H[dD]N; lactam 4-C), the MIC in [5] is above 100 µg/mL.

`CO[C@H]1/C=C/O[C@@]2(C)Oc3c(C)c(O)c4c(O)c(c(/C=N/N5CCN(C)CC5)c(O)c4c3C2=O)NC(=O)/C(C)=C\C=C\[C@H](C)[C@H](O)[C@@H](C)[C@@H](O)[C@@H](C)[C@H](OC(C)=O)[C@@H]1C` [rifampicin] returned an MIC in test [6] above 100 µg/mL.

Regarding `O=C(N[C@H](CO)[C@H](O)c1ccc([N+](=O)[O-])cc1)C(Cl)Cl` [chloramphenicol], the MIC in [7] was above 100 µg/mL.

In turn, `CCC[C@@H]1C[C@@H](C(=O)N[C@@H]([C@H]2O[C@H](SC)[C@H](O)[C@@H](O)[C@H]2O)[C@@H](C)O)N(C)C1` [lincomycin] displayed an MIC in test [8] above 100 µg/mL.

In turn, neomycin registered an MIC in [9] above 100 µg/mL.

The compound `CN(C)C1C(=O)C(C(N)=O)=C(O)C2(O)C(=O)C3=C(O)c4c(O)cccc4C(C)(O)C3CC12` (centres unmarked) [tetracycline] yielded an MIC in test [10] above 100 µg/mL.

In [11], `CC1(C)S[C@@H]2[C@H](NC(=O)Cc3ccccc3)C(=O)N2[C@H]1C(=O)O` [penicillin] came in with an MIC above 100 µg/mL.
